Measurements published in ChEMBL document CHEMBL1201862, “PubChem BioAssay data set” (2004).
The source made the active and inactive calls.

Legend:
Leucine aminopeptidase = target: T1, Leucine aminopeptidase (Plasmodium falciparum 3D7, UniProt Q8IL11); assay: P. falciparum M17LAP inhibitors, primary screen, biochemical, fluorogenic H-Leu-NHMec substrate, 1536-well (AID 1619); format: functional
T1 sequence (Q8IL11 whole entry): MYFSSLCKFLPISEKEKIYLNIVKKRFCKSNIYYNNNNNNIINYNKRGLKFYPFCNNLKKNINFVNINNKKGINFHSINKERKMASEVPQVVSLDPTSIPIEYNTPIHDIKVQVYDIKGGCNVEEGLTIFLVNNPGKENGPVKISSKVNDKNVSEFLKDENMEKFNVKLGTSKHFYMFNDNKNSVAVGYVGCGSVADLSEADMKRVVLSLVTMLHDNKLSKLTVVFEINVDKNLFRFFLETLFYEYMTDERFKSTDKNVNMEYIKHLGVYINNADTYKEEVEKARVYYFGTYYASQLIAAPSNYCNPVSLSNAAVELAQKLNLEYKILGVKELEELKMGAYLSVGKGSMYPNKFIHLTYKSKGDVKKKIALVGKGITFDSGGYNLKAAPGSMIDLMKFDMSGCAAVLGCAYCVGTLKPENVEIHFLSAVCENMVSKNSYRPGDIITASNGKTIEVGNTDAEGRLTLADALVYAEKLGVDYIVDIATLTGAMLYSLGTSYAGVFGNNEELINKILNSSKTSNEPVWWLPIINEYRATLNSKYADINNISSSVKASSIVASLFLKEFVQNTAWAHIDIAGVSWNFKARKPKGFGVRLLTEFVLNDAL

[1] = target: T2, Corticotropin-releasing factor receptor 2/Corticotropin-releasing factor-binding protein (Homo sapiens, UniProt P24387+Q13324); assay: activators of CRF receptor 2 with binding protein – uHTS hits, confirmation (AID 602473); format: functional; conditions: read-out: EC50_Mean
T2 sequence (Q13324 whole entry): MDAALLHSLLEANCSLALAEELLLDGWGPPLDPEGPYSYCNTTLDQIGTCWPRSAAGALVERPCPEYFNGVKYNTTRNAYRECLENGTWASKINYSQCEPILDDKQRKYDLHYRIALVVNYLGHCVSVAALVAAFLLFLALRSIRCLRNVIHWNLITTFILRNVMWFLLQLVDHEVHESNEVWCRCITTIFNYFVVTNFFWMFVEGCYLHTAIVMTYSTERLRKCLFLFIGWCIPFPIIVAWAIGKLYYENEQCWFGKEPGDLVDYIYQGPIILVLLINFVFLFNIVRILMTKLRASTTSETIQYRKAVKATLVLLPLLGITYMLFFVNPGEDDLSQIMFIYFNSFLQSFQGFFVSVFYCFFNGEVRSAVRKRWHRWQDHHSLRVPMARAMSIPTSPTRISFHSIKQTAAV
T2 sequence (P24387 whole entry): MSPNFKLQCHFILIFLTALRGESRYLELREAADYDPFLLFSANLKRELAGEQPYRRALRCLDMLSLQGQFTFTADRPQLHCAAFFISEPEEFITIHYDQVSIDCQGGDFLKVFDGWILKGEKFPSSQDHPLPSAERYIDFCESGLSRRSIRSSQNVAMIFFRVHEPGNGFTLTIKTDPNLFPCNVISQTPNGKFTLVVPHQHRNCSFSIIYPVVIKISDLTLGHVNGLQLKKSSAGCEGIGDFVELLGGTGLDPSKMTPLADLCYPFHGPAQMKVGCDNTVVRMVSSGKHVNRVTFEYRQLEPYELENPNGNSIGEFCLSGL

[2] = blockers of CRF-binding protein–CRF-R2 complex – cell-based, uHTS hits, 384-well, dose response (AID 651639); format: functional, Homo sapiens; conditions: read-out: IC50_Mean
[3] = target: T2, Corticotropin-releasing factor receptor 2/Corticotropin-releasing factor-binding protein; assay: Dose Response confirmation of uHTS hits for small molecule antagonists of the CRF-binding protein and CRF-R2 receptor complex.; format: functional; conditions: read-out: IC50_Mean
Genome polyprotein = Genome polyprotein (dengue virus type 2, UniProt P29990); assay: flavivirus cap methylation enzyme inhibition – biochemical, confirmation dose response, primary screen (AID 588689); format: functional
Genome polyprotein, sequence (P29990 2492-3391 limits assumed): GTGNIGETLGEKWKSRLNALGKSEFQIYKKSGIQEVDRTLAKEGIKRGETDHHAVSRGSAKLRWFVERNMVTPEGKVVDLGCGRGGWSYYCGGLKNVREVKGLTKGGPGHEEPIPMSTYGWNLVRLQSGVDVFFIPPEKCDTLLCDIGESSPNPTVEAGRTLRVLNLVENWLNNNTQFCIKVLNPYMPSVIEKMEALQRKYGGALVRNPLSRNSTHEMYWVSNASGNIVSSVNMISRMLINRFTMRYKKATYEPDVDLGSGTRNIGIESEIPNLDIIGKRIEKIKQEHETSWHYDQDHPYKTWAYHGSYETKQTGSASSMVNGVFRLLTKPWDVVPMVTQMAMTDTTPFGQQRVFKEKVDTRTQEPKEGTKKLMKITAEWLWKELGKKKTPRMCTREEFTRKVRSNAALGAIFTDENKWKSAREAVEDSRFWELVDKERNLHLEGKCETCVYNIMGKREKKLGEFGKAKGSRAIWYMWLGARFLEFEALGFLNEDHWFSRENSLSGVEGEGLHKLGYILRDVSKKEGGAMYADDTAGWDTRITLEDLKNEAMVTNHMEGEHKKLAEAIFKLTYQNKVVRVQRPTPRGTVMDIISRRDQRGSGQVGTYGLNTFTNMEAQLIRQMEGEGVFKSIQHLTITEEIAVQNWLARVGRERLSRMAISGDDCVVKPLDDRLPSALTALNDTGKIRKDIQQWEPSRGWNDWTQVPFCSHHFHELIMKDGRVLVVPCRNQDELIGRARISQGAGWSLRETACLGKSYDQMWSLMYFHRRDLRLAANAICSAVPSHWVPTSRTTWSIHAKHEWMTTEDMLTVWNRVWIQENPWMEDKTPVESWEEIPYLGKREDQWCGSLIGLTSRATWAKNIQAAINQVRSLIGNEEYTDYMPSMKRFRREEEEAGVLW

[4] = target: T3, Polyadenylate-binding protein 1 (Homo sapiens, UniProt P11940); assay: MLLE domain peptide-binding blockers, IC50 – biochemical, fluorescence polarization, FITC-PAM2 peptide, dose response (AID 602259); format: functional; conditions: read-out: IC50_Mean
T3 sequence (P11940 whole entry, the tested form may be a part): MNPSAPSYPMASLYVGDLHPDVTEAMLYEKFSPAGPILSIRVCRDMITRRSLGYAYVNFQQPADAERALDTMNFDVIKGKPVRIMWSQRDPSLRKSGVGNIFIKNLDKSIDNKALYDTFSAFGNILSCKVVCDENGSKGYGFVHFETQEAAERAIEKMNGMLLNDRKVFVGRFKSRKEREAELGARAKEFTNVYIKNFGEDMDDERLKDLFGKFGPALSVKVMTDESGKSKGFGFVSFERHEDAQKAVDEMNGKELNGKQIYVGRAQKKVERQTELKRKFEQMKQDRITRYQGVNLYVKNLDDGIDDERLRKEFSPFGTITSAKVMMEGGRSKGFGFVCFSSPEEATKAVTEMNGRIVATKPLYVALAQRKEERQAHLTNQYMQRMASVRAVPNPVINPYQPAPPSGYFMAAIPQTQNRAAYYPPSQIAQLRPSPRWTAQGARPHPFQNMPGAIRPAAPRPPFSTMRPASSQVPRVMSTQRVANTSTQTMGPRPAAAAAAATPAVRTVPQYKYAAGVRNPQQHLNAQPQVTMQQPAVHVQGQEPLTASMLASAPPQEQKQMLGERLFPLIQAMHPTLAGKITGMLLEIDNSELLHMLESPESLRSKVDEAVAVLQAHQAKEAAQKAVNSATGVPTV

[5] = target: T3, Polyadenylate-binding protein 1; assay: MLLE binding blockers, Cy5 peptide tracer – biochemical, fluorescence polarization, Cy5-PAM2 peptide, secondary, miRNA deadenylation inhibitor project, dose response (AID 602260); format: functional; conditions: read-out: IC50_Mean
Fatty acid synthase [6] = target: T4, Fatty acid synthase (Homo sapiens, UniProt P49327); assay: inhibition of human FAS-TE enzyme activity – biochemical, endpoint fluorescence intensity, uHTS hits, dose response (AID 624327); format: functional;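 also: fluorescence from hydrolysis of an O-methyl fluorescein acyl ester substrate by the enzyme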
T4 sequence (P49327 whole entry): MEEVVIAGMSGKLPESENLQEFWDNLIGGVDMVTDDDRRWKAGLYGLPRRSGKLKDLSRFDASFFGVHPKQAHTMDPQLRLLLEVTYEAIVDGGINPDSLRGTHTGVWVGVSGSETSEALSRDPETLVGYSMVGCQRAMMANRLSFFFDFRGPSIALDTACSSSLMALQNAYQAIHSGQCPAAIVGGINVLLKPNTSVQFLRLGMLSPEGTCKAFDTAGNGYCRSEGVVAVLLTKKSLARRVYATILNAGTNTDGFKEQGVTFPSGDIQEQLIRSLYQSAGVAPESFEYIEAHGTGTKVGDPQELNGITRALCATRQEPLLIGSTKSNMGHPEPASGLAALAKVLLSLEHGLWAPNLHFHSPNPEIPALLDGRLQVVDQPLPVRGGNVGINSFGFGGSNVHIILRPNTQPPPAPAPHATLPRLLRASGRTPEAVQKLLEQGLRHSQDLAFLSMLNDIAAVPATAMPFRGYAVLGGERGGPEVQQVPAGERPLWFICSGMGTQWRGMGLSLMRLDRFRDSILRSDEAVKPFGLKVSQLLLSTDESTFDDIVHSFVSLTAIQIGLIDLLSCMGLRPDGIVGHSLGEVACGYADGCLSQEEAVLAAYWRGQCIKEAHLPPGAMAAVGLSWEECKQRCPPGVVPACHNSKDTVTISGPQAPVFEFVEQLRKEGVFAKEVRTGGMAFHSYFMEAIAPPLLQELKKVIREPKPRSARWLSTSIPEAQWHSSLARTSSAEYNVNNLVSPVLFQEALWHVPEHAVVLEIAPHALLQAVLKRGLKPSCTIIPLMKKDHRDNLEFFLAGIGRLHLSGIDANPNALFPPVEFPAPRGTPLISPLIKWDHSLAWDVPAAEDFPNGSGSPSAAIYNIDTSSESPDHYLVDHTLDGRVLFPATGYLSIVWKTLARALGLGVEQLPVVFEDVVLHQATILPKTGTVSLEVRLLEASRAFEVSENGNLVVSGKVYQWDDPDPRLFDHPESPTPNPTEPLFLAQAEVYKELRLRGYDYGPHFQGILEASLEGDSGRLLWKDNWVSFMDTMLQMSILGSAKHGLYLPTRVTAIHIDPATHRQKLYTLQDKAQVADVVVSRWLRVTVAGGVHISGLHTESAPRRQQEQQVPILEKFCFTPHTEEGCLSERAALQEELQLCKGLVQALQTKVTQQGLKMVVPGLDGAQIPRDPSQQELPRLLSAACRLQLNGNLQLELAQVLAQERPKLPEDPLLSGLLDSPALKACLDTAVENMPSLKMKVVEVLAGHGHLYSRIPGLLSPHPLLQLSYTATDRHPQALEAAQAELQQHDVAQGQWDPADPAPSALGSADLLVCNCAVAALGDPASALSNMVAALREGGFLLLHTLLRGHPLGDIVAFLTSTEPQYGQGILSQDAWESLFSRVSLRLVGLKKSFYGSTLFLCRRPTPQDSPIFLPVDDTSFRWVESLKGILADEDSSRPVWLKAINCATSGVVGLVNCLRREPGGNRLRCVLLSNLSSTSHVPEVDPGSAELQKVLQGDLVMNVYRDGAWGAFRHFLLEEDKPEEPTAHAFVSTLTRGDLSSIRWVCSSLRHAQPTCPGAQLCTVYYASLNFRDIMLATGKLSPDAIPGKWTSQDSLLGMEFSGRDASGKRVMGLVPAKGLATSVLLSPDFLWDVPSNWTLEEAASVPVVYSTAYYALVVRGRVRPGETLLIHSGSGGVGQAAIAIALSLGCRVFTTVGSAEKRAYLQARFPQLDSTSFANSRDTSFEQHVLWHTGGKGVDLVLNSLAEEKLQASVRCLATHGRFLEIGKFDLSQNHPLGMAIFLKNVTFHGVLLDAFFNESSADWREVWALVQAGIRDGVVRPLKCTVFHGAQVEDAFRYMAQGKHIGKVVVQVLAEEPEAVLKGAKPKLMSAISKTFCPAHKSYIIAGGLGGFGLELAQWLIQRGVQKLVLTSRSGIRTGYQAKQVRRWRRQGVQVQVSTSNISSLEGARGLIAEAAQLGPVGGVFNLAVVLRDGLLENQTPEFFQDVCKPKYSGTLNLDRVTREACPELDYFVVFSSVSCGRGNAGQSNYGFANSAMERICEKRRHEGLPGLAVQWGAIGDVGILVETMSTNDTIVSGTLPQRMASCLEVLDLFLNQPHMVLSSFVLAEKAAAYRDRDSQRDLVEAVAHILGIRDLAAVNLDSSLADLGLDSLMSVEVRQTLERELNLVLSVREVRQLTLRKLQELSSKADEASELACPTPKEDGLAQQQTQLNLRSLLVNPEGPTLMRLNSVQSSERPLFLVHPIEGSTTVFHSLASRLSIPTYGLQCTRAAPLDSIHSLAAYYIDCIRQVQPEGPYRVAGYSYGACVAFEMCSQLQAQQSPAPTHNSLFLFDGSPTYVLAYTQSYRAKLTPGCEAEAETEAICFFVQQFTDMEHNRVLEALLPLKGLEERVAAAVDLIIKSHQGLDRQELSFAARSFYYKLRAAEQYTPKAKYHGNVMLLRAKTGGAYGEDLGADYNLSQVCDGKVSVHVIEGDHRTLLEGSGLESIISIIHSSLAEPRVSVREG

Fatty acid synthase [7] = target: T4, Fatty acid synthase; assay: inhibition of human FAS-TE enzyme activity – biochemical, kinetic fluorescence intensity, dose response (AID 624326); format: functional;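 also: rate of fluorescence rise from hydrolysis of a fluorogenic O-methyl fluorescein ester substrate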
BJ [8] = assay: BJ-TERT-LT-ST fibroblast viability loss – cell-based, RAS-independent, luminescence, dose response (AID 1935); format: functional; conditions: Homo sapiens;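 also: BJ fibroblasts immortalized with TERT plus LT and ST oncogenes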
BJ [9] = assay: growth inhibition of engineered Ras-driven BJ cells – cell-based, alamar blue fluorescence, cherrypicked samples, dose response (AID 2631); format: functional; conditions: Homo sapiens;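 also: confirmatory dose-response assay in RAS-dependent BJ fibroblasts engineered with TERT, LT and ST, with cytotoxicity read by fluorescence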
BJ [10] = assay: cells; format: functional, cell-based; conditions: Homo sapiens
[11] = DRD fibroblast viability loss – cell-based, non-viral oncogenic, luminescence, dose response (AID 1934); format: functional; conditions: Homo sapiens
BJ [12] = assay: BJ-TERT fibroblast viability loss – cell-based, RAS-independent, luminescence, dose response (AID 1933); format: functional; conditions: Homo sapiens
HEK293 [13] = assay: EBV LMP1 TES2 canonical NF-kB signalling blockers – cell-based, HEK293, luciferase, cherry-pick, dose response (AID 588343); format: functional; conditions: Homo sapiens
[14] = target: Nucleotide-binding oligomerization domain-containing protein 2 (Homo sapiens, UniProt Q9HC29); assay: inhibition of NOD2-driven NF-kB reporter – cell-based, luminescence, uHTS, HEK293 (AID 1566); format: functional
HEK293 [15] = assay: cells; format: functional, cell-based; conditions: Homo sapiens
H4 = assay: Luminescence Cell-Based Dose Response HTS to Identify Activators of 5'UTR Stem-Loop Driven Prion Protein mRNA Translation in H4 Neuroglioblastoma Cells. [Related pubchem assays: 1829 (Project Summary), 1814 (Primary HTS)]; format: functional; conditions: Homo sapiens
HEK293 [16] = assay: inhibition of NOD1-driven NF-kB reporter – cell-based, luminescence, uHTS, primary screen (AID 1578); format: functional; conditions: Homo sapiens
HEK293 [17] = assay: cells; format: functional, cell-based; conditions: Homo sapiens; remark: listed apart in the source
HEK293 [18] = assay: NOD2 signaling inhibitors in MDP-stimulated cells, cell-based, uHTS, luminescence (AID 2001); format: functional; conditions: Homo sapiens
HEK293 [19] = assay: cells; format: functional, cell-based; conditions: Homo sapiens; remark: listed apart in the source
[20] = HEK-293T viability loss after treatment – luminescence, T-cell screen hits, cytotoxicity control for TCR NF-kB inhibitor project, dose response (AID 489026); format: functional, cell-based;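 also: cells exposed to compound about 14 hours before the viability readout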
[21] = target: Glucose-6-phosphate 1-dehydrogenase (Homo sapiens, UniProt P11413); assay: inhibition of Homo sapiens G6PD, dose series – biochemical, fluorescence, selectivity assay for P. falciparum G6PD inhibitor project, dose response (AID 504792); format: functional
Glucose-6-phosphate 1-dehydrogenase, sequence (P11413 whole entry): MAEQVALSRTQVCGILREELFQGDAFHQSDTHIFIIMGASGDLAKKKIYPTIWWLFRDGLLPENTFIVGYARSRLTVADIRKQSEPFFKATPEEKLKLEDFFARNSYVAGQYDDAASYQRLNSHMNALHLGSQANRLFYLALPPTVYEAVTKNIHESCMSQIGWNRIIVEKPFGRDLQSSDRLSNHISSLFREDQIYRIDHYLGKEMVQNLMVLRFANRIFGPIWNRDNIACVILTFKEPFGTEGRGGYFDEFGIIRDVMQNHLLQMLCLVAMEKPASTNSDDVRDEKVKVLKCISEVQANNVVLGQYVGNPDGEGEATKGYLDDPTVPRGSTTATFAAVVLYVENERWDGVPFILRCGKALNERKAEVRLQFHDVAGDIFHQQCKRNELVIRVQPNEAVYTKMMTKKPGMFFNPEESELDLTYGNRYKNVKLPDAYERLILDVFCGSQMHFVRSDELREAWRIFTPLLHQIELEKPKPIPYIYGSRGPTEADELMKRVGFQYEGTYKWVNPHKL

[22] = target: T5, Probable nicotinate-nucleotide adenylyltransferase (Staphylococcus aureus (strain N315), UniProt P65502); format: functional, Staphylococcus aureus subsp. aureus N315;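 as to IC50 Mean: confirmatory dose-response retesting of NadD inhibitor hits first found in an ultra-high-throughput screen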
T5 sequence (P65502 whole entry): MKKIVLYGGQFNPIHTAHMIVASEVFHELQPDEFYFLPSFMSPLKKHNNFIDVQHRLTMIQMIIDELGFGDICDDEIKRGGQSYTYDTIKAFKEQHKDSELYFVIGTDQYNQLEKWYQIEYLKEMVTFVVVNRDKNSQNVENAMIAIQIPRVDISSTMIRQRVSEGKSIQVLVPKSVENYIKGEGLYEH

[23] = target: T5, Probable nicotinate-nucleotide adenylyltransferase; format: functional, Staphylococcus aureus subsp. aureus N315; conditions: read-out: IC50_Mean
[24] = target: T6, Short transient receptor potential channel 4 (Mus musculus, UniProt Q9QUQ5); assay: block of DAMGO-driven TRPC4 calcium entry – cell-based, HEK293 TRPC4/mu-opioid, Fluo-4 calcium, dose response (AID 434942); format: functional;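 also: potency of inhibitors blocking the TRPC4 calcium response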
T6 sequence (Q9QUQ5 whole entry): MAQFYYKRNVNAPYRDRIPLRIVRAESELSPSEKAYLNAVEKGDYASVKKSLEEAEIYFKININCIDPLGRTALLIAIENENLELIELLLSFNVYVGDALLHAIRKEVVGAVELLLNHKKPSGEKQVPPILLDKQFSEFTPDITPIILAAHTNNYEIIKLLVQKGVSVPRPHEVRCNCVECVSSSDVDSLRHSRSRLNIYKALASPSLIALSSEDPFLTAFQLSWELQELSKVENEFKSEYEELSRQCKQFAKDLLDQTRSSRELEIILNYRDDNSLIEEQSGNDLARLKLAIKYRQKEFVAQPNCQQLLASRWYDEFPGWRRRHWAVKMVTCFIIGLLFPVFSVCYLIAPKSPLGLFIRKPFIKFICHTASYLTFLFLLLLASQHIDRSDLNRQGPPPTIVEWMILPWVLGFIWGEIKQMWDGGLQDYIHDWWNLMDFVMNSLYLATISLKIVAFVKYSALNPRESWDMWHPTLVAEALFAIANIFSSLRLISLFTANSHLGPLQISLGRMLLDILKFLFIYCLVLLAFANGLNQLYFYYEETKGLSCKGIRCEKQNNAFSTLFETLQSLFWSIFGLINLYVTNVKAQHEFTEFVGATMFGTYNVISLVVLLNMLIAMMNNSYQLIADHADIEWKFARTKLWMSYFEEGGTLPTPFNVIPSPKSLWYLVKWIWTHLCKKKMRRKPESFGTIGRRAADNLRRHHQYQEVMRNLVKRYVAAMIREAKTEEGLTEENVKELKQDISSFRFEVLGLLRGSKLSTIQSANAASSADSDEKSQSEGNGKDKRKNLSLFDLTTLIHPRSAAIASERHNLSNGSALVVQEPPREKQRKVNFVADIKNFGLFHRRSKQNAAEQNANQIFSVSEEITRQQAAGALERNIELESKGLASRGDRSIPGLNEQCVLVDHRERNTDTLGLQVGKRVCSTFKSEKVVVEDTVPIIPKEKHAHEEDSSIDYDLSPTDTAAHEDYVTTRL

## O=C(COc1ccc2ccccc2c1)Nc1cccc(C(=O)Nc2ccccc2C(=O)O)c1
Leucine aminopeptidase
  IC50: 8.71 µM (active)
[1]
  EC50: > 53 µM (inactive)
[2]
  IC50: 7.44 µM (active)
[3]
  IC50: 2.55 µM (active)

## CCC(=O)N(Cc1c(C)nn(-c2ccccc2)c1Cl)c1ccc(Cl)cc1
[1]
  EC50: > 53 µM (inactive)
[2]
  IC50: 19.8 µM (active)
[3]
  IC50: 7.02 µM (active)

## COc1ccc(Nc2cc(Cl)ccc2C(=O)O)cn1
Genome polyprotein
  IC50: 63.5 µM (active)
[4]
  IC50: 52.2 µM (inactive)
[5]
  IC50: > 66 µM (inactive)

## CCOC(=O)c1sc(N2C(=O)C(O)=C(C(=O)c3ccco3)C2c2ccc([N+](=O)[O-])cc2)nc1C (centres undefined)
Genome polyprotein
  IC50: 38.1 µM (active)
Fatty acid synthase [6]
  IC50: 5.46 µM (active)
Fatty acid synthase [7]
  IC50: 7.89 µM (active)

## COc1ccc(NC(=O)CN(C)S(=O)(=O)c2ccc3nc(O)oc3c2)cc1
BJ [8]
  EC50: 47.8 µM (active)
BJ [9]
  EC50: > 133 µM (inactive)
BJ [10]
  EC50: > 150 µM (not active)
[11]
  EC50: > 150 µM (not active)
BJ [12]
  EC50: > 150 µM (not active)

## O=C(c1ccc(COc2ccccc2Cl)o1)N1CCCC1
HEK293 [13]
  AC50: 77.8 µM (active)

## CCS(=O)(=O)c1nnnn1-c1ccccc1S(C)(=O)=O
HEK293 [13]
  AC50: 11.3 µM (active)
[14]
  EC50: > 20 µM (inactive)
HEK293 [15]
  IC50: > 20 µM (inactive)
H4
  EC50: > 120 µM (not active)
HEK293 [16]
  EC50: 11.7 µM (active)
HEK293 [17]
  IC50: 6.55 µM (active)
HEK293 [18]
  IC50: 9.2 µM (active)
HEK293 [19]
  IC50: > 20 µM (inactive)

## Cc1ccc2[nH]c3c(c2c1)CCCC3NC(=O)CCl (centres undefined)
BJ [8]
  EC50: > 150 µM (inconclusive)
BJ [9]
  EC50: 0.565 µM (active)
HEK293 [13]
  AC50: 2.36 µM (active)
BJ [10]
  EC50: 8.7 µM (active)
[20]
  IC50: > 80 µM (inactive)
[11]
  EC50: 7.41 µM (inconclusive)
BJ [12]
  EC50: 13.8 µM (active)

## O=C(O)CCN1C(=O)/C(=C\c2cccc(OCC(=O)Nc3ccc(Cl)cc3)c2)SC1=S
Genome polyprotein
  IC50: 34.9 µM (active)

## O=C(Nc1nnc(S(=O)(=O)N2CCCC2)s1)c1cccc([N+](=O)[O-])c1
[21]
  IC50: 56 µM (inactive)

## N#C/C(=C/c1cn(-c2ccccc2)nc1-c1cccc(S(=O)(=O)N2CCCC2)c1)C(=O)NCc1ccco1
[22]
  IC50: 14.4 µM (active)
[23]
  IC50: 50.1 µM (active)

## Cc1cc([N+](=O)[O-])ccc1NCc1ccco1
[1]
  EC50: > 53 µM (inactive)
[24]
  EC50: 5.96 µM (active)
[2]
  IC50: 7.36 µM (active)
[3]
  IC50: 23.1 µM (active)

## CCCCN(CCCC)c1ccc(C(=O)c2ccccc2C(=O)O)c(O)c1
Genome polyprotein
  IC50: 44.1 µM (active)

## COc1ccc(Cl)cc1NC(=O)CN(C)S(=O)(=O)c1cccs1
HEK293 [13]
  AC50: 51.2 µM (active)

## COC(=O)c1cc(C#N)c(NCc2ccccc2)nc1C
[1]
  EC50: > 53 µM (inactive)
[2]
  IC50: > 20 µM (inactive)
[3]
  IC50: 8.02 µM (active)

## O=C(O)/C(=C\c1c(C(=O)O)[nH]c2cc(Cl)cc(Cl)c12)c1ccccc1
Genome polyprotein
  IC50: 75.5 µM (active)

## O=C(N/N=C/c1cccc([N+](=O)[O-])c1)C(=O)N1CCCCCC1
[21]
  IC50: > 80 µM (inactive)
